Measurements as given in US8691577B2, “Somatic embryogenesis of Jatropha curcas from ovules” (Joil (S) Pte Ltd., priority 2008, dated 2014).
Entries after “also recorded” stand apart in the source; their conditions may differ.

Legend:
[1] = system: ovule explants of Jatropha curcas; experiment: Induction of embryogenic callus from ovule explants on MS initiation medium; type: cell-based
Description: (§1) The initiation medium was MS basal medium (MS mineral salts and vitamins) supplemented with sucrose (3%) as the carbon source and included phytoagar (0.8%) as a gelling agent. The pH of the medium was 5.8. The germination medium was MS basal medium supplemented with sucrose (3%) as the carbon source and included phytogel (0.25%) as a gelling agent. The pH of the medium was 5.8. The media were dispensed into sterilized Petri dish (90×15 mm size, plastic polycarbonate, Canada). The chemicals used for media preparations were of analytical grade (Duchefa Biochemie, Haarlem, The Netherlands and Sigma Aldrich, Inc., St Louis, USA).
Different hormones were added to the media for the development of the method according to the present invention. In general, the media contained a reduced concentration of phytohormones. The hormones that were tested in the media were phytohormones that will affect growth in the desired manner during different stages of tissue culture. Examples of phytohormones that were tested include natural or synthetic auxin (2,4-D, indole-3-acetic acid (IAA), IBA), cytokinin (BA, KN,), GA3, or cytokinin-active urea derivatives (such as TDZ). The hormones were tested singly or in combination. For induction of embryogenic callus, only 2,4-D (2.26, 4.52, 6.78 and 9.02 μM) was effective.
(§2) The sterilized flower buds were dissected using stereo microscope and the ovules were isolated and injured using dissection needle. The injured ovule explants were inoculated onto initiation medium supplemented with different phytohormones and incubated in dark for 40 days. The callus induced from these ovules was transferred to the fresh initiation medium and cultured in the light (16/8 h (light/dark) photoperiod period, light intensity of 25 μE m^−2s^−1) for somatic embryo development and maturation. The callus with developing and maturing somatic embryos were subcultured every two weeks. The mature cotyledon shaped somatic embryos that developed from this embryogenic callus were transferred to germination medium for germination. The germinating somatic embryos were subcultured every two weeks. The germinated plantlets were hardened and transferred to green house. All cultures were maintained at 25° C.±2° C. with 55%-60% relative humidity. Approximately 12-15 mature cotyledon shaped embryos were developed per 100 mg of embryogenic callus, and 95% of the somatic embryos were developed.

[2] = system: mature somatic embryos of Jatropha curcas; experiment: Germination of somatic embryos and growth of plantlets on MS germination medium; type: cell-based; conditions: for germination of somatic embryos: auxin in combination with GA3 (0.72, 1.44, 2.88, 5.76 μM) in MS medium, IBA 1.23-4.92 μM, IAA 1.42-8.56 μM, NAA 1.34-8.04 μM; for growth of germinated plantlets: added to germination medium (MS with IBA and GA3)
Description: as §1, §2

[3] = system: leaf explants of J. curcas; conditions: Jha et al. (2007), cited from earlier work
[4] = system: embryogenic callus from ovules of Jatropha curcas; experiment: Somatic embryo development and maturation from embryogenic callus; type: cell-based
Procedure: as §2
Induction of callus occurred in MS medium containing different auxins and cytokinins individually as well as in combinations.

[5] = system: embryogenic callus of Jatropha curcas; experiment: Production of double haploid plantlets by treating embryogenic callus with a mitotic inhibitor; type: cell-based
Procedure: Double haploid plants are produced by treating the embryogenic callus with a mitotic inhibitor. In one embodiment, the embryogenic callus is treated with the mitotic inhibitor for one day to three days, preferably three days. In one embodiment, the mitotic inhibitor is colchicine. In one embodiment, the embryogenic callus is treated with 0.1% to 0.5%, preferably 0.5% colchicine. In another embodiment, the mitotic inhibitor is oryzalin. In one embodiment, the embryogenic callus is treated with 0.1% to 0.5%, preferably 0.5% oryzalin. The mitotic inhibitor is added to the embryogenic callus induction medium, described above, prior to transfer of the embryogenic callus to the fresh initiation medium. The culture conditions for culturing in the presence of the mitotic inhibitor is the same as for somatic embryogenic callus induction. Following treatment with the mitotic inhibitor, the treated embryogenic callus is placed on fresh initiation medium for the development and maturation of somatic embryos and cultured as described above. The mature somatic embryos are placed on the germination medium and cultured as described above to germinate double haploid plantlets as described above.
Embryogenic callus prepared as described in Example 5 which is above to develop into somatic embryos (after forty days of embryogenic callus induction) was treated with different concentration of colchicines (0.1-1%) for three-days. The culture condition (temperature, photoperiod and light) are same as described above. After the colchicine treatment, the treated embryogenic callus was transferred to fresh initiation medium (MS medium containing 2,4-D (6.78 μM)) and cultured as described in Example 5 for the development of somatic embryos. The mature somatic embryos were transferred to germination media (MS medium fortified with GA3 and IBA) and cultured as described in Example 5 for plantlet development.

[6] = hormone alone in MS initiation medium, 2,4-D 2.26, 4.52, 6.78, 9.02 μM, IAA 0.71-5.70 μM, IBA 0.615-4.92 μM

In the case of `O=C(O)Cc1c[nH]c2ccccc12` [IAA, indole-3-acetic acid], the “induction of embryogenic callus” value [1, 6] is reported as “induced only non-embryogenic callus” and the “germination of somatic embryos” value [2] is reported as “not effective”.
For `Nc1ncnc2nc[nH]c12.O=S(=O)(O)O` [AdSO4, adenine sulphate], the “type of callus induced” value ([1]; addition to callus induction medium) is given as “induction of greenish compact callus that becomes non-embryogenic”, the “growth of germinated plantlets” value ([2]; sulphate) is given as “enhanced the growth of germinated plantlets” and the “effect on somatic embryo development” value ([3]; 13.6 μM added) is given as “stimulated the process of somatic embryo development”.
For `O=C(O)CCCc1c[nH]c2ccccc12` [IBA, indole-3-butyric acid], the “induction of embryogenic callus” value [1, 6] was “induced only non-embryogenic callus” and the “germination of somatic embryos” value [2] was “effective; also recorded: occurred”.
With `c1ccc(CNc2ncnc3nc[nH]c23)cc1` [BA, 6-benzylaminopurine] the “growth of germinated plantlets” value [2] was “enhanced the growth of germinated plantlets”.
With `O=C(O)COc1ccc(Cl)cc1Cl` [2,4-D, 2,4-dichlorophenoxyacetic acid] the “induction of embryogenic callus” value ([1]; MS medium supplemented with 2,4-D, dark conditions) was “induced embryogenic callus; also recorded: vital”, the “induction of embryogenic callus” value ([1]; MS medium supplemented with 2,4-D, in the presence of light) was “not result in the induction of embryogenic callus” and the “induction of embryogenic callus” value [1, 6] was “effective in inducing embryogenic callus”. For the same compound, the “somatic embryo development (globular, heart, torpedo and cotyledon-shaped)” value ([4]; MS medium containing 2,4-D) was “effective” and the “outcome of continuous culture of somatic embryos” value ([4]; continuous culture in MS medium containing 2,4-D) was “abnormal somatic embryo formation without germination”.
With `COc1cc2c(c(OC)c1OC)-c1ccc(OC)c(=O)cc1[C@@H](NC(C)=O)CC2` [colchicines, colchicine] the “most effective concentration for production of double haploid plantlets” value ([5]; 0.1-1% tested, three days treatment of embryogenic callus) was 0.5%, the “effect on callus at higher concentration” value ([5]; concentration above 0.5%) was “callus become brown and died” and the “morphological characters of treated plantlets” value ([5]; plantlets from treated embryogenic callus) was “like double haploid”.
For `c1coc(CNc2ncnc3[nH]cnc23)c1` [KN, kinetin], the “growth of germinated plantlets” value [2] is listed as “enhanced the growth of germinated plantlets”, the “development of somatic embryos” value ([3]; MS medium with KN 2.3 μM and IBA 1.0 μM) is listed as “developed” and the “induction of embryogenic callus from leaf explants” value ([3]; MS medium with KN 9.3 μM) is listed as “induced”.
With `O=C(O)Cc1cccc2ccccc12` [NAA] the “germination of somatic embryos” value [2] was “not effective”.
With `O=C(Nc1ccccc1)Nc1cnns1` [TDZ, thidiazuron] the “growth of germinated plantlets” value [2] was “enhanced the growth of germinated plantlets”.
